Assays:
Assay type in all cases: cell-based
[1] = system: P.aeruginosa IHMA 517175; experiment: MIC by broth microdilution, P. aeruginosa IHMA 517175; settings: cation-adjusted Mueller-Hinton broth, CLSI guidelines, clinical strain with reduced susceptibility to PMB
[2] = system: A.baumannii NCTC 13424; experiment: MIC by broth microdilution, A. baumannii NCTC 13424; settings: cation-adjusted Mueller-Hinton broth, CLSI guidelines
[3] = system: A.baumannii IHMA 863866; experiment: MIC by broth microdilution, A. baumannii IHMA 863866; settings: cation-adjusted Mueller-Hinton broth, CLSI guidelines, clinical strain with reduced susceptibility to PMB
[4] = system: E.coli ATCC 25922; experiment: MIC by broth microdilution, E. coli ATCC 25922; settings: cation-adjusted Mueller-Hinton broth, CLSI guidelines
[5] = system: K.pneumoniae IHMA 652780; experiment: MIC by broth microdilution, K. pneumoniae IHMA 652780; settings: cation-adjusted Mueller-Hinton broth, CLSI guidelines, clinical strain with reduced susceptibility to PMB
[6] = system: K.pneumoniae ATCC 4352; experiment: MIC by broth microdilution, K. pneumoniae ATCC 4352; settings: cation-adjusted Mueller-Hinton broth, CLSI guidelines
[7] = system: P.aeruginosa ATCC 27853; experiment: MIC by broth microdilution, P. aeruginosa ATCC 27853; settings: cation-adjusted Mueller-Hinton broth, CLSI guidelines
[8] = system: E.coli IHMA 940398; experiment: MIC by broth microdilution, E. coli IHMA 940398; settings: cation-adjusted Mueller-Hinton broth, CLSI guidelines, clinical strain with reduced susceptibility to PMB

## Polymyxin B [Compound 1]
[1]
  MIC P.aeruginosa IHMA 517175: 8.0 mg/L
[2]
  MIC A.baumannii NCTC 13424: 0.25 mg/L
[3]
  MIC A.baumannii IHMA 863866: 32 mg/L
[4]
  MIC E.coli ATCC 25922: 0.25 mg/L
[5]
  MIC K.pneumoniae IHMA 652780: 4.0 mg/L
[6]
  MIC K.pneumoniae ATCC 4352: 0.125 mg/L
[7]
  MIC P.aeruginosa ATCC 27853: 0.5 mg/L
[8]
  MIC E.coli IHMA 940398: 16 mg/L
